From patent publication US20200239530A1, “COMPOUNDS AND METHODS OF MODULATING PROTEIN DEGRADATION” (Vividion Therapeutics, Inc., priority 2017, published 2020)

How the values were obtained:
[1] = molecular target: T1, ATG16L1 Autophagy-related protein 16-1 (Homo sapiens, UniProt Q676U5); test: Cysteine liganding, probe competition; format: binding
T1 construct: 200 μL of lysate containing 5 mg/ml proteome was treated with 2 μL of 100× compound stock; endogenous in cells
Description: (§1) Cells were resuspended in cold PBS on ice and sonicated with a probe sonicator to achieve lysis. 200 μL of lysate containing 5 mg/ml proteome was treated with 2 μL of 100× compound stock in a 2-mL deep-well plate. The treated lysate was subsequently incubate at 25° C. for 1 hr with shaking at 600 rpm. The treated lysate was further incubated with 2 μL of 10 mM desthiobiotin iodoacetamide probe at 25° C. for 1 hr with shaking at 600 rpm. Next, the lysate was further treat with 20 μL of solution of PBS containing 11 mM MgSO4 and 2.5% Turbonuclease stock and incubated at 25° C. for 20 minutes with shaking at 600 rpm. 1.7 mL ice-cold acetone was added to each well and incubated at −20° C. for 2 hr, followed by max speed (4200 rpm) spin for 45 min. Acetone was then decanted and the plates were blotted to remove acetone. The plates were then dried in open air for 20 minutes. After drying, the plates were then covered with foil seal and stored at −80° C. overnight.
(§2) The next day, samples were re-suspended in 90 μL of solution of 9M urea, 50 mM ammonium bicarbonate and 10 mM DTT by incubating at 65C for 20 min with shaking at 1500 rpm. Next, samples were cooled to 37° C. and then 10 μL of 500 mM iodoacetamide solution (92.48 mg/ml) was added. The samples were then incubated at 37° C. for 30 min with shaking at 600 rpm.
(§3) ZEBA desalting plates were equilibrated 4 times using 250 μL of 2M urea, 50 mM ammonium bicarbonate solution followed by centrifugation at 1500 rpm for 2 minutes. After equilibration was complete, samples were applied to ZEBA desalting plate and spin at 1500 rpm for 2 min on top of 1 mL 96-well deep-well collection plate to buffer exchange samples. 4 μL of solution containing 25 mM CaCl2 and 0.25 mg/mL trypsin was added to the plate and the plate was then incubated at 37° C. for 2 hrs with shaking at 600 rpm. 300 μL of solution containing 5% high-capacity streptavidin agarose slurry in 25 mM Tris-HCl pH 7.5, 150 mM NaCl, and 0.1% NP-40 then added. The plate was incubated at 25° C. for 2 hrs with shaking at 600 rpm. Samples were transferred to 25 μm filter plate and spin at 1000 rpm for 2 min. Samples were then washed 3 times with 0.75 mL of wash buffer (25 mM Tris-HCl pH 7.5, 150 mM NaCl, and 0.1% NP-40) followed by washing 3 times with 0.75 mL PBS, and then 4 times with 0.75 mL water. After the washing step, samples were eluted into polypropylene 96-well plate by addition of 250 µL of 50% MeCN/water, 0.1% formic acid and allowed to gravity drip for 10 min, followed by centrifugation at 1000 rpm for 2 min. Speedvac was used to dry the plates at about 45° C. for […]. Then the plates were covered with foil seal and stored at −20° C.
(§4) Samples were resuspended by addition of 20 μl of 12.5% ACN, 0.1% formic acid solution, covered with foil seal, and incubated at 42° C. for 10 minutes with shaking at 600 rpm. Then add 30 μL of 0.1% formic acid solution was added and the plate was covered and incubated at 42° C. for 10 minutes with shaking at 600 rpm. Seal plate was then sealed with a 96-well silicon mat for analysis.

[2] = molecular target: T2, FBXO11 F-box only protein 11 (Homo sapiens, UniProt Q86XK2); test: Cysteine liganding, probe competition; format: binding
T2 construct: Cells were resuspended in cold PBS on ice and sonicated with a probe sonicator to achieve lysis; endogenous in cells
T2 sequence (Q86XK2 1-927): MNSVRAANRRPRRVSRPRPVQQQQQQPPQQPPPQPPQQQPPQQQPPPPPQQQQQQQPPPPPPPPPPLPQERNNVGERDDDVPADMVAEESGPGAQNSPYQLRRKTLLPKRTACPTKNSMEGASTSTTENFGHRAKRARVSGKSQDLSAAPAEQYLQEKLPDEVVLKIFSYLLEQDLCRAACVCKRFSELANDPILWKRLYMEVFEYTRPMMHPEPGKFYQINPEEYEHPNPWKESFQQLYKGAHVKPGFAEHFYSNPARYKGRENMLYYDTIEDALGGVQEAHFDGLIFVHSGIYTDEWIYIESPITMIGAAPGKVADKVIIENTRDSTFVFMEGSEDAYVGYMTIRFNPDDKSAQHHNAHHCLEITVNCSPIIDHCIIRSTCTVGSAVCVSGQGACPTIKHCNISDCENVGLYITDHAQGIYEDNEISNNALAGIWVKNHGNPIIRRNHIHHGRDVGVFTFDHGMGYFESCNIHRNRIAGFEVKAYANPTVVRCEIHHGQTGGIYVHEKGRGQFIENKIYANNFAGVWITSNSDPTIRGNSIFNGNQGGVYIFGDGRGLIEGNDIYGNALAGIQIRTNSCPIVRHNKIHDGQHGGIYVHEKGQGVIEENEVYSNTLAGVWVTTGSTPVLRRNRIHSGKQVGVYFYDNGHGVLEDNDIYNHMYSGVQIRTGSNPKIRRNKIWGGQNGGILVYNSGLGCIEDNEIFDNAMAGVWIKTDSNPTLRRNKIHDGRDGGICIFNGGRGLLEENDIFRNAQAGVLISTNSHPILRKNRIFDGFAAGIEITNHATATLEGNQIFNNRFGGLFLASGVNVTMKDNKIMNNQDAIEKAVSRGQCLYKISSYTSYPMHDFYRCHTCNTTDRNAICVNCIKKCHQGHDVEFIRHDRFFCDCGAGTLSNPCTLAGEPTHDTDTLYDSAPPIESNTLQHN
Description: as §1, §2, §3, §4

T1 sequence (Q676U5 whole entry): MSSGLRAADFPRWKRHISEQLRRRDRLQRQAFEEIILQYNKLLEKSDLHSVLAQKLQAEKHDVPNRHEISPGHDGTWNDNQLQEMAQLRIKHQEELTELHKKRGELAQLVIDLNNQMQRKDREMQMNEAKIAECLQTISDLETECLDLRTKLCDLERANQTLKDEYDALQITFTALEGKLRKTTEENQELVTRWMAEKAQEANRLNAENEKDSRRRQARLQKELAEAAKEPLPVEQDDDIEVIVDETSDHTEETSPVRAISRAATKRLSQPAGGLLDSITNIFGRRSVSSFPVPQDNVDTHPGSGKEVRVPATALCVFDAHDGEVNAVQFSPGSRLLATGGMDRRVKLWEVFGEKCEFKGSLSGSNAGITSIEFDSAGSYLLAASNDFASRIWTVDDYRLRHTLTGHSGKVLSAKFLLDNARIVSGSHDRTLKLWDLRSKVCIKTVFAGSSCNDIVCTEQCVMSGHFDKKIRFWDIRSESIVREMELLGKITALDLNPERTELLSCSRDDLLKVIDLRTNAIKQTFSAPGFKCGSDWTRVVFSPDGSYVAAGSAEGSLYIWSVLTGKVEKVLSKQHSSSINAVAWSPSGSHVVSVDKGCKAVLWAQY

SMILES | Liganded ([1]; ATG16L1 Res# 145, uniprot Q676U5) | Liganded ([2]; FBXO11 Res# 581, uniprot Q86XK2) | 100 Max ([1]; uniprot Q676U5) | 100 ave ([1]; uniprot Q676U5) | 500 Max ([1]; uniprot Q676U5) | 500 ave ([1]; uniprot Q676U5) | 100 Max ([2]; uniprot Q86XK2) | 100 ave ([2]; uniprot Q86XK2) | 500 Max ([2]; uniprot Q86XK2) | 500 ave ([2]; uniprot Q86XK2)
COc1ccc2c(c1)CCCN2C(=O)CCl [KB02] | YES | YES | – | – | – | – | – | – | – | –
O=C(CCl)Nc1cc(C(F)(F)F)cc(C(F)(F)F)c1 [KBO3] | – | – | −47.09 | −47.09 | 18.73 | 18.73 | −13.9 | −20.1 | 28.6 | 20.3
